Earlier results, collected in patent publication US20080260771A1, “PROSTATE DISORDER(S) PHYTO-NUTRACEUTICAL SYNERGISTIC COMPOSITION” (priority 2006, published 2008).

Key:
[1] = system: human prostate cancer cells; conditions: not in normal prostate epithelial cells
prostate cancer = conditions: supranutritional doses of selenium, clinical trials

Molecule | apoptotic death [1] | reduction of prostate cancer incidence (prostate cancer) [%] | tumor growth and lung metastases (prostate tumor)
[Se] [Selenium] | induces rapid apoptotic death | 50 | 
Vitamin E |  |  | significantly suppressed tumor growth
